Measured values as given in EP1247803A2, “Indolinone compounds suitable for modulation of protein kinases” (Sugen, Inc., priority 1996, dated 1998).

Assays:
MET = MET biochemical kinase assay; set-up: species or system human; concentration or dose not given beside the values
Method in brief: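 Plates coated with anti-rabbit Fc bind a rabbit anti-MET antibody that captures receptor from cell lysates; unbound protein is washed off before compound and ATP-containing kinase buffer go in.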

FLK-1 receptor = target: T1, FLK-1 receptor (Mus musculus, UniProt P35918); test: FLK-1 ELISA (kinase activity of the FLK-1 receptor in FLK-1/NIH3T3 cells, VEGF stimulated); type: cell-based
T1 construct: expressed in transfected cells; host or cells: NIH3T3 C7#3
T1 sequence (P35918 20-1345): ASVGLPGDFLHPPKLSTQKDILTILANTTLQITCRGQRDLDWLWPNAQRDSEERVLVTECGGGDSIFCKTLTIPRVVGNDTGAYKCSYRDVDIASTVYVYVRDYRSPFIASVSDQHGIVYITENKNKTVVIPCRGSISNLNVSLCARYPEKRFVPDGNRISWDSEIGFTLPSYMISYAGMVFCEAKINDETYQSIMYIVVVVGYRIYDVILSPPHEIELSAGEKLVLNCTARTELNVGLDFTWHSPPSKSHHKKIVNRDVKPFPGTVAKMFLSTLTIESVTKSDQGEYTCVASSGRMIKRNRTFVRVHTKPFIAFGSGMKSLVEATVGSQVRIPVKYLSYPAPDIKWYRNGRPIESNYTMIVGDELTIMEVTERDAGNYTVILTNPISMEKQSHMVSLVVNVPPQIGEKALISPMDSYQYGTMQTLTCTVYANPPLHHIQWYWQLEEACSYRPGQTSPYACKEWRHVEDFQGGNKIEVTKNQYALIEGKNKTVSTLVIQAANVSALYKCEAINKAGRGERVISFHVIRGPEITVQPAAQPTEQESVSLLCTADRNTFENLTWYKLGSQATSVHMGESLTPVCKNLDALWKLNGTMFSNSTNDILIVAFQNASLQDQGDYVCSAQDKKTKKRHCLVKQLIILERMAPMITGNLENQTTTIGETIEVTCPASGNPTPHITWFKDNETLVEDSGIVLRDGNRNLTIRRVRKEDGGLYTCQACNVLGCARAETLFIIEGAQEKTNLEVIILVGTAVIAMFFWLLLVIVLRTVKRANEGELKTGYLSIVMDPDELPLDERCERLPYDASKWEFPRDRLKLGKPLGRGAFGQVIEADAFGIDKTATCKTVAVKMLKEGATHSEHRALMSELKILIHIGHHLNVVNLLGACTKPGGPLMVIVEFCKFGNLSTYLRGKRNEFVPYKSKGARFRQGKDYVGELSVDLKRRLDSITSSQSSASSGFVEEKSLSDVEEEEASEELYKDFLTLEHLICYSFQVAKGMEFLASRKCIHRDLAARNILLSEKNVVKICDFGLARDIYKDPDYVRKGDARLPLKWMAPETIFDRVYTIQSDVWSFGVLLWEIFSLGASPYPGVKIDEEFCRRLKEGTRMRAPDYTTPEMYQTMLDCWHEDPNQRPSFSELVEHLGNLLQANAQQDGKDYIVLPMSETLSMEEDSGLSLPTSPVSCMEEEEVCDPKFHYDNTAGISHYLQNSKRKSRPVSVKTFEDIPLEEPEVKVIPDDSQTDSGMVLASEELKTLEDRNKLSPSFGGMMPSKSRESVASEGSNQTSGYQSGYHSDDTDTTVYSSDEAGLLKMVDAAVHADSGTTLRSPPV
Method in brief: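 An ELISA using affinity-purified rabbit anti-FLK-1 antiserum on anti-rabbit IgG-coated plates measured VEGF-stimulated FLK-1 kinase activity. NIH3T3 C7#3 cells carrying FLK-1 were serum-starved (0.1% FBS) overnight, then exposed to compound (final 1:200 dilution, 0.5% DMSO) for two hours at 37 °C.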

PDGF-R = PDGF-R (Homo sapiens, UniProt P09619); test: PDGF-R ELISA; type: cell-based
Sequence of PDGF-R (P09619 33-1106, species assumed): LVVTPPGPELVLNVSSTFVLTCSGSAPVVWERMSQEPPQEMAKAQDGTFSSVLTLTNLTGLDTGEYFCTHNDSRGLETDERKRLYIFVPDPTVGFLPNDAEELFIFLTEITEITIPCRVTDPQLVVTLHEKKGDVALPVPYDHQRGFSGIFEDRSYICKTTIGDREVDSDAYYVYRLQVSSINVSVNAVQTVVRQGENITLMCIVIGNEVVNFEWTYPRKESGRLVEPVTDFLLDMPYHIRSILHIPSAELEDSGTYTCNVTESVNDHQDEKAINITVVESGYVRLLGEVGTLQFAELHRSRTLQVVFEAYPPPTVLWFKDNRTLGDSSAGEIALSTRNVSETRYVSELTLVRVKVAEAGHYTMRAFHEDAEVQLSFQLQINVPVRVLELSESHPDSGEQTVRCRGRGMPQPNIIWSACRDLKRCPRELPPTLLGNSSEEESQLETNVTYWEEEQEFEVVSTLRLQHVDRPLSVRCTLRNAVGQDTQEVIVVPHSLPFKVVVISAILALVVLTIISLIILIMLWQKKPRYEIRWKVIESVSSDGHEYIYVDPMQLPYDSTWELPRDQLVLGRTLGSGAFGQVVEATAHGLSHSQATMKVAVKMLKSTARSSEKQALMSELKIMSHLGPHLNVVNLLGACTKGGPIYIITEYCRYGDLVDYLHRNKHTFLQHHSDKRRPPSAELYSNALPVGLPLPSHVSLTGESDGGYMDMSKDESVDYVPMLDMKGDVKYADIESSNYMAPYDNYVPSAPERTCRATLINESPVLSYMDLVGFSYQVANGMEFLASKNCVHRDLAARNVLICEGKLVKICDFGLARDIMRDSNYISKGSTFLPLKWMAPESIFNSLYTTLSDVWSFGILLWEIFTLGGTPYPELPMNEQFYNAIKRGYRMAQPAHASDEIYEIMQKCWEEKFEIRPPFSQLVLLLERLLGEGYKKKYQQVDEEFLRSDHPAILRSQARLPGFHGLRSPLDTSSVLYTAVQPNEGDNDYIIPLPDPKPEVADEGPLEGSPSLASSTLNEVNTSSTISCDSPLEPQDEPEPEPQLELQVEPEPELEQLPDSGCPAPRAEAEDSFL
From the text: A PDGF-R ELISA is described in International Patent Publication No. WO 96/40116, published December 19, 1996 by Tang et al.

Cc1[nH]c(C=C2C(=O)Nc3c(Br)cc(Br)cc32)c(Br)c1Br [10717/A11]
Met Kinase % Inhibition (MET): 64.8% | Fik Kinase %Inhibition (FLK-1 receptor): -5.8%

O=C1Nc2ccc(S(=O)(=O)Nc3ccc(C(F)(F)F)cc3)cc2C1=Cc1ccc2ccccc2c1O [10718/E04]
Met Kinase % Inhibition (MET): 87.7% | Fik Kinase %Inhibition (FLK-1 receptor): 15.1%

CCOC(=O)CCc1c(C(=O)OCC)[nH]c(C=C2C(=O)Nc3ccc(S(=O)(=O)Nc4ccc(C(F)(F)F)cc4)cc32)c1CC(=O)OCC [10718/E05]
Met Kinase % Inhibition (MET): 32.2% | Fik Kinase %Inhibition (FLK-1 receptor): 16.1%

CCOC(=O)c1cc(C=C2C(=O)Nc3ccc(S(=O)(=O)Nc4ccc(C(F)(F)F)cc4)cc32)oc1C [10718/E06]
Met Kinase % Inhibition (MET): 33.4% | Fik Kinase %Inhibition (FLK-1 receptor): 15.4%

COC(=O)c1[nH]c(C)c(C=C2C(=O)Nc3ccc(S(=O)(=O)Nc4ccc(C(F)(F)F)cc4)cc32)c1C(=O)OC [10718/E07]
Met Kinase % Inhibition (MET): 80.5% | Fik Kinase %Inhibition (FLK-1 receptor): 15.6%

O=C1Nc2ccc(S(=O)(=O)Nc3ccc(C(F)(F)F)cc3)cc2C1=Cc1ccc(Cl)c([N+](=O)[O-])c1 [10718/E08]
Met Kinase % Inhibition (MET): 69.6% | Fik Kinase %Inhibition (FLK-1 receptor): 9.2%

Cc1c(O)ccc(C=C2C(=O)Nc3ccc(S(=O)(=O)Nc4ccc(C(F)(F)F)cc4)cc32)c1O [10718/E09]
Met Kinase % Inhibition (MET): 80.8% | Fik Kinase %Inhibition (FLK-1 receptor): 0.9%

O=C1Nc2ccc(S(=O)(=O)Nc3ccc(C(F)(F)F)cc3)cc2C1=Cc1ccco1 [10718/E10]
Met Kinase % Inhibition (MET): 60.8% | Fik Kinase %Inhibition (FLK-1 receptor): 15.2%

O=C1Nc2ccc(S(=O)(=O)Nc3ccc(C(F)(F)F)cc3)cc2C1=Cc1ccc([N+](=O)[O-])o1 [10718/E11]
Met Kinase % Inhibition (MET): 37.5% | Fik Kinase %Inhibition (FLK-1 receptor): 12.1%

COc1c([N+](=O)[O-])cc(C=C2C(=O)Nc3ccc(S(=O)(=O)Nc4ccc(C(F)(F)F)cc4)cc32)cc1C(C)(C)C [10733/E03]
Met Kinase % Inhibition (MET): 26.8% | Fik Kinase %Inhibition (FLK-1 receptor): 42.6% | PDGF Kinase %Inhibition (PDGF-R): 43.1%

COc1c(C(C)(C)C)cc(C=C2C(=O)Nc3ccc(S(=O)(=O)Nc4ccc(C(F)(F)F)cc4)cc32)cc1C(C)(C)C [10733/E04]
Met Kinase % Inhibition (MET): 17.5% | Fik Kinase %Inhibition (FLK-1 receptor): 2.1% | PDGF Kinase %Inhibition (PDGF-R): -13.7%

CC(C)(C)c1cc(C=C2C(=O)Nc3ccc(S(=O)(=O)Nc4ccc(C(F)(F)F)cc4)cc32)cc(C(C)(C)C)c1OCc1ccccc1 [10733/E05]
Met Kinase % Inhibition (MET): 2.9% | Fik Kinase %Inhibition (FLK-1 receptor): 10.6% | PDGF Kinase %Inhibition (PDGF-R): -33.2%

COc1c(C)cc(C=C2C(=O)Nc3ccc(S(=O)(=O)Nc4ccc(C(F)(F)F)cc4)cc32)cc1C [10733/E06]
Met Kinase % Inhibition (MET): 10.4% | Fik Kinase %Inhibition (FLK-1 receptor): 13.5% | PDGF Kinase %Inhibition (PDGF-R): 22.4%

Cc1cc(C=C2C(=O)Nc3ccc(S(=O)(=O)Nc4ccc(C(F)(F)F)cc4)cc32)cc(C)c1OCc1ccccc1 [10733/E07]
Met Kinase % Inhibition (MET): -10.1% | Fik Kinase %Inhibition (FLK-1 receptor): 13.2% | PDGF Kinase %Inhibition (PDGF-R): 29.3%

COc1cc(Br)cc(C=C2C(=O)Nc3ccc(S(=O)(=O)Nc4ccc(C(F)(F)F)cc4)cc32)c1O [10733/E08]
Met Kinase % Inhibition (MET): 81.1% | Fik Kinase %Inhibition (FLK-1 receptor): -5.1% | PDGF Kinase %Inhibition (PDGF-R): 75.2%

O=C1Nc2ccc(S(=O)(=O)Nc3ccc(C(F)(F)F)cc3)cc2C1=Cc1cc(Br)ccc1O [10733/E09]
Met Kinase % Inhibition (MET): 62.6% | Fik Kinase %Inhibition (FLK-1 receptor): 13.4% | PDGF Kinase %Inhibition (PDGF-R): 35.8%

O=C1Nc2ccc(S(=O)(=O)Nc3ccc(C(F)(F)F)cc3)cc2C1=Cc1cc([N+](=O)[O-])ccc1O [10733/E10]
Met Kinase % Inhibition (MET): 52.8% | Fik Kinase %Inhibition (FLK-1 receptor): 5.5% | PDGF Kinase %Inhibition (PDGF-R): 10.3%

COc1c(O)ccc(C=C2C(=O)Nc3ccc(S(=O)(=O)Nc4ccc(C(F)(F)F)cc4)cc32)c1[N+](=O)[O-] [10733/E11]
Met Kinase % Inhibition (MET): 71.8% | Fik Kinase %Inhibition (FLK-1 receptor): 5.5% | PDGF Kinase %Inhibition (PDGF-R): 15.9%

CC(C)(C)c1cc(C=C2C(=O)Nc3ccc(S(=O)(=O)N4CCOCC4)cc32)cc(I)c1OCc1ccccc1 [10733/F02]
Met Kinase % Inhibition (MET): 71.6% | Fik Kinase %Inhibition (FLK-1 receptor): -15.7% | PDGF Kinase %Inhibition (PDGF-R): 3.8%

COc1c([N+](=O)[O-])cc(C=C2C(=O)Nc3ccc(S(=O)(=O)N4CCOCC4)cc32)cc1C(C)(C)C [10733/F03]
Met Kinase % Inhibition (MET): 24.2% | Fik Kinase %Inhibition (FLK-1 receptor): 17.5% | PDGF Kinase %Inhibition (PDGF-R): 24.5%

COc1c(C(C)(C)C)cc(C=C2C(=O)Nc3ccc(S(=O)(=O)N4CCOCC4)cc32)cc1C(C)(C)C [10733/F04]
Met Kinase % Inhibition (MET): 65.1% | Fik Kinase %Inhibition (FLK-1 receptor): 21.4% | PDGF Kinase %Inhibition (PDGF-R): -28.7%

CC(C)(C)c1cc(C=C2C(=O)Nc3ccc(S(=O)(=O)N4CCOCC4)cc32)cc(C(C)(C)C)c1OCc1ccccc1 [10733/F05]
Met Kinase % Inhibition (MET): 65.1% | Fik Kinase %Inhibition (FLK-1 receptor): 26.2% | PDGF Kinase %Inhibition (PDGF-R): -25.1%

COc1c(C)cc(C=C2C(=O)Nc3ccc(S(=O)(=O)N4CCOCC4)cc32)cc1C [10733/F06]
Met Kinase % Inhibition (MET): 20.9% | Fik Kinase %Inhibition (FLK-1 receptor): 19.3% | PDGF Kinase %Inhibition (PDGF-R): -4.8%

Cc1cc(C=C2C(=O)Nc3ccc(S(=O)(=O)N4CCOCC4)cc32)cc(C)c1OCc1ccccc1 [10733/F07]
Met Kinase % Inhibition (MET): -16.4% | Fik Kinase %Inhibition (FLK-1 receptor): 16.4% | PDGF Kinase %Inhibition (PDGF-R): 1.7%

COc1cc(Br)cc(C=C2C(=O)Nc3ccc(S(=O)(=O)N4CCOCC4)cc32)c1O [10733/F08]
Met Kinase % Inhibition (MET): 66.6% | Fik Kinase %Inhibition (FLK-1 receptor): -13.2% | PDGF Kinase %Inhibition (PDGF-R): -32.4%

O=C1Nc2ccc(S(=O)(=O)N3CCOCC3)cc2C1=Cc1cc(Br)ccc1O [10733/F09]
Met Kinase % Inhibition (MET): 52.8% | Fik Kinase %Inhibition (FLK-1 receptor): -2.1% | PDGF Kinase %Inhibition (PDGF-R): -0.3%

O=C1Nc2ccc(S(=O)(=O)N3CCOCC3)cc2C1=Cc1cc([N+](=O)[O-])ccc1O [10733/F10]
Met Kinase % Inhibition (MET): 24.4% | Fik Kinase %Inhibition (FLK-1 receptor): 8.5% | PDGF Kinase %Inhibition (PDGF-R): -5.6%

COc1c(O)ccc(C=C2C(=O)Nc3ccc(S(=O)(=O)N4CCOCC4)cc32)c1[N+](=O)[O-] [10733/F11]
Met Kinase % Inhibition (MET): 44.4% | Fik Kinase %Inhibition (FLK-1 receptor): 4.1% | PDGF Kinase %Inhibition (PDGF-R): -17.8%

CC(C)(C)c1cc(C=C2C(=O)Nc3ccc(CCCl)cc32)cc(I)c1OCc1ccccc1 [10733/G02]
Met Kinase % Inhibition (MET): 64.5% | Fik Kinase %Inhibition (FLK-1 receptor): 8.3% | PDGF Kinase %Inhibition (PDGF-R): -7.6%

COc1c([N+](=O)[O-])cc(C=C2C(=O)Nc3ccc(CCCl)cc32)cc1C(C)(C)C [10733/G03]
Met Kinase % Inhibition (MET): 30.5% | Fik Kinase %Inhibition (FLK-1 receptor): 24.7% | PDGF Kinase %Inhibition (PDGF-R): 12.7%

COc1c(C(C)(C)C)cc(C=C2C(=O)Nc3ccc(CCCl)cc32)cc1C(C)(C)C [10733/G04]
Met Kinase % Inhibition (MET): 20.3% | Fik Kinase %Inhibition (FLK-1 receptor): 11.5% | PDGF Kinase %Inhibition (PDGF-R): 11.9%

CC(C)(C)c1cc(C=C2C(=O)Nc3ccc(CCCl)cc32)cc(C(C)(C)C)c1OCc1ccccc1 [10733/G05]
Met Kinase % Inhibition (MET): 1.8% | Fik Kinase %Inhibition (FLK-1 receptor): 19.2% | PDGF Kinase %Inhibition (PDGF-R): -1.1%

COc1c(C)cc(C=C2C(=O)Nc3ccc(CCCl)cc32)cc1C [10733/G06]
Met Kinase % Inhibition (MET): 0.8% | Fik Kinase %Inhibition (FLK-1 receptor): 37.0% | PDGF Kinase %Inhibition (PDGF-R): 0.1%

Cc1cc(C=C2C(=O)Nc3ccc(CCCl)cc32)cc(C)c1OCc1ccccc1 [10733/G07]
Met Kinase % Inhibition (MET): 8.5% | Fik Kinase %Inhibition (FLK-1 receptor): 19.5% | PDGF Kinase %Inhibition (PDGF-R): -6.8%

COc1cc(Br)cc(C=C2C(=O)Nc3ccc(CCCl)cc32)c1O [10733/G08]
Met Kinase % Inhibition (MET): 79.0% | Fik Kinase %Inhibition (FLK-1 receptor): 2.5% | PDGF Kinase %Inhibition (PDGF-R): 68.7%

O=C1Nc2ccc(CCCl)cc2C1=Cc1cc(Br)ccc1O [10733/G09]
Met Kinase % Inhibition (MET): 41.4% | Fik Kinase %Inhibition (FLK-1 receptor): 77.8% | PDGF Kinase %Inhibition (PDGF-R): -17.0%

O=C1Nc2ccc(CCCl)cc2C1=Cc1cc([N+](=O)[O-])ccc1O [10733/G10]
Met Kinase % Inhibition (MET): 41.9% | Fik Kinase %Inhibition (FLK-1 receptor): 12.7% | PDGF Kinase %Inhibition (PDGF-R): -58.0%

COc1c(O)ccc(C=C2C(=O)Nc3ccc(CCCl)cc32)c1[N+](=O)[O-] [10733/G11]
Met Kinase % Inhibition (MET): 32.6% | Fik Kinase %Inhibition (FLK-1 receptor): 3.3% | PDGF Kinase %Inhibition (PDGF-R): -4.4%

CCOc1cccc(C=C2C(=O)Nc3c(Br)cc(Br)cc32)c1O [10734/A02]
Met Kinase % Inhibition (MET): 51.1% | Fik Kinase %Inhibition (FLK-1 receptor): 4.1% | PDGF Kinase %Inhibition (PDGF-R): -3.8%

O=C1Nc2c(Br)cc(Br)cc2C1=Cc1cc(Cl)cc(Cl)c1O [10734/A03]
Met Kinase % Inhibition (MET): 87.8% | Fik Kinase %Inhibition (FLK-1 receptor): 10.1% | PDGF Kinase %Inhibition (PDGF-R): 22.3%

O=C1Nc2c(Br)cc(Br)cc2C1=Cc1cc(Cl)ccc1O [10734/A04]
Met Kinase % Inhibition (MET): 68.0% | Fik Kinase %Inhibition (FLK-1 receptor): 0.6% | PDGF Kinase %Inhibition (PDGF-R): 11.7%

CCN(CC)c1ccc(C=C2C(=O)Nc3c(Br)cc(Br)cc32)c(O)c1 [10734/A05]
Met Kinase % Inhibition (MET): 69.9% | Fik Kinase %Inhibition (FLK-1 receptor): 9.1% | PDGF Kinase %Inhibition (PDGF-R): 2.9%

O=C1Nc2c(Br)cc(Br)cc2C1=Cc1ccc([N+](=O)[O-])cc1 [10734/A06]
Met Kinase % Inhibition (MET): 46.9% | Fik Kinase %Inhibition (FLK-1 receptor): -6.4% | PDGF Kinase %Inhibition (PDGF-R): -9.9%

O=C1Nc2c(Br)cc(Br)cc2C1=Cc1cc(Br)cc(Br)c1O [10734/A07]
Met Kinase % Inhibition (MET): 89.3% | Fik Kinase %Inhibition (FLK-1 receptor): -9.4% | PDGF Kinase %Inhibition (PDGF-R): 21.9%

O=C1Nc2c(Br)cc(Br)cc2C1=Cc1cccc(F)c1O [10734/A08]
Met Kinase % Inhibition (MET): 71.5% | Fik Kinase %Inhibition (FLK-1 receptor): 0.1% | PDGF Kinase %Inhibition (PDGF-R): 9.1%
